Several values for one entry are separate records, joined by “and”; a condition that tells them apart may be missing. Identical values can stand only once.
Tests used:
[1] = test system: Human diploid fibroblasts HCA; experiment: Anti-aging activity: senescence-associated beta-galactosidase in human fibroblasts; format: cell-based; details: for Senescent Cells (%) HCA passage 25: passage 25, cells expressing senescence-associated beta-galactosidase; for Senescent Cells (%) HCA passage 50: passage 50, cells expressing senescence-associated beta-galactosidase; for Senescent Cells (%) HCA passage 80: passage 80, cells expressing senescence-associated beta-galactosidase
Method: In this example, effects of the compounds of this invention on the activity of a senescence biomarker senescence-associated β-galactosidase was studied. Human diploid fibroblasts HCA of various passage levels were used for this purpose. The tested compounds were added to the medium at each passage. After the incubation period, cells were washed with PBS and fixed with 2% formaldehyde and 0.2% glutaraldehyde in PBS. After another wash with PBS, they were incubated with the staining solution comprising potassium ferricyanide (5 mM), potassium ferrocyanide (5 mM), MgCl2 (2 mM), X-gal (5-bromo-4-chloro-3-indolyl-β-D-galactopyranoside) (1 mg/ml), in citric/phosphate buffer (pH 6.0) at 37° C. (without CO2) for at least 1 hour. Following the incubation period, the numbers of cells expressing senescence-associated β-galactosidase (blue cells) were counted using light microscope.

[2] = test system: Amaranthus caudatus cotyledon/hypocotyl explants; experiment: Amaranthus bioassay (betacyanin content); format: cell-based, Amaranthus caudatus var. atropurpurea; details: for Activity (%) [10^−5 mol · l^−1 K = 100%]: at the concentration with highest activity, relative to 10^−5 M kinetin
Method: The standard Amaranthus bioassay was performed with the following modifications. The seeds of Amaranthus caudatus var. atropurpurea were surface-sterilised in 10% (w/v) N-chlorobenzenesulfonamide for 10 min and washed 5 times with deionized water. They were placed in 15 cm Petri dishes containing paper tissues saturated with deionized water. After 72 h of cultivation at 25° C. in darkness, the roots of the seedlings were cut off. The explants, consisting of two cotyledons and hypocotyls, were placed in 5 cm Petri dishes onto two layers of filtration paper soaked with 1 ml of the incubation medium containing 10 μmol of Na2HPO4—KH2PO4, pH 6.8, 5 μmol of tyrosine and the compound to be tested. There were 20 explants per dish. The procedure was carried out under green safe light in a darkroom. After 48 h of incubation at 25° C. in darkness, betacyanin was extracted by freezing the explants in 4 ml 3.33 μM acetic acid. The concentration of betacyanin was determined from the absorbances at 537 nm and 620 nm as follows: ΔA=A537nm−A620nm. The values ΔA were plotted against the concentration tested, are means of five replicates and the entire test was repeated at least twice. […] The compounds to be tested were dissolved in dimethylsulfoxide (DMSO) and the solution brought up to 10^−3M with distilled water.
From the obtained data, the concentration with the highest activity was selected for each compound tested. Relative activity of the compound at this concentration was calculated (Tab. 12). The activity obtained for 10^−5 M kinetin (K) was postulated as 100%.

[3] = test system: cytokinin-dependent tobacco callus Nicotiana tabacum L. cv. Wisconsin 38; experiment: Tobacco callus biotest (plant cell division); format: cell-based; details: for Activity (%) [10^−5 mol · l^−1 K = 100%]: at the concentration with highest activity, relative to 10^−5 M kinetin
Method: The stimulatory effect of the newly prepared derivatives was tested in the calus biotest using cytokinin-dependent tobacco callus. Cytokinin-dependent tobacco callus Nicotiana tabacum L. cv. Wisconsin 38 was maintained at 25° C. in darkness on modified Murashige-Skoog medium, containing per 1 liter: 4 μmol of nicotinic acid, 2.4 μmol of pyridoxine hydrochloride, 1.2 μmol of thiamine, 26.6 μmol of glycine, 1.37 μmol of glutamine, 1.8 μmol of myo-inositol, 30 g of sucrose, 8 g of agar, 5.37 μmol of NAA and 0.5 μmol of 6-benzylaminopurine. Subcultivation was carried out every three weeks. Fourteen days before the bioassay, the callus tissue was transferred to the media without 6-benzylaminopurine. The biological activity was determined from the increase of the fresh callus weight after four weeks of cultivation. Five replicates were prepared for each concentration of the compound tested and the entire test was repeated twice. […] The compounds to be tested were dissolved in dimethylsulfoxide (DMSO) and the solution brought up to 10^−3 M with distilled water.
From the obtained data, the concentration with the highest activity was selected for each compound tested. Relative activity of the compound at this concentration was calculated (Table 11). The activity obtained for 10^−5 M of the control substance kinetin (K) was postulated as 100%.

[4] = molecular target: T1, AHK3 (Arabidopsis thaliana, UniProt Q9C5U1); experiment: Activation of cytokinin receptors (E. coli KMI001 beta-galactosidase reporter); format: cell-based; details: 28 h incubation; n.a. means no activation
T1 sequence (Q9C5U1 1-1036): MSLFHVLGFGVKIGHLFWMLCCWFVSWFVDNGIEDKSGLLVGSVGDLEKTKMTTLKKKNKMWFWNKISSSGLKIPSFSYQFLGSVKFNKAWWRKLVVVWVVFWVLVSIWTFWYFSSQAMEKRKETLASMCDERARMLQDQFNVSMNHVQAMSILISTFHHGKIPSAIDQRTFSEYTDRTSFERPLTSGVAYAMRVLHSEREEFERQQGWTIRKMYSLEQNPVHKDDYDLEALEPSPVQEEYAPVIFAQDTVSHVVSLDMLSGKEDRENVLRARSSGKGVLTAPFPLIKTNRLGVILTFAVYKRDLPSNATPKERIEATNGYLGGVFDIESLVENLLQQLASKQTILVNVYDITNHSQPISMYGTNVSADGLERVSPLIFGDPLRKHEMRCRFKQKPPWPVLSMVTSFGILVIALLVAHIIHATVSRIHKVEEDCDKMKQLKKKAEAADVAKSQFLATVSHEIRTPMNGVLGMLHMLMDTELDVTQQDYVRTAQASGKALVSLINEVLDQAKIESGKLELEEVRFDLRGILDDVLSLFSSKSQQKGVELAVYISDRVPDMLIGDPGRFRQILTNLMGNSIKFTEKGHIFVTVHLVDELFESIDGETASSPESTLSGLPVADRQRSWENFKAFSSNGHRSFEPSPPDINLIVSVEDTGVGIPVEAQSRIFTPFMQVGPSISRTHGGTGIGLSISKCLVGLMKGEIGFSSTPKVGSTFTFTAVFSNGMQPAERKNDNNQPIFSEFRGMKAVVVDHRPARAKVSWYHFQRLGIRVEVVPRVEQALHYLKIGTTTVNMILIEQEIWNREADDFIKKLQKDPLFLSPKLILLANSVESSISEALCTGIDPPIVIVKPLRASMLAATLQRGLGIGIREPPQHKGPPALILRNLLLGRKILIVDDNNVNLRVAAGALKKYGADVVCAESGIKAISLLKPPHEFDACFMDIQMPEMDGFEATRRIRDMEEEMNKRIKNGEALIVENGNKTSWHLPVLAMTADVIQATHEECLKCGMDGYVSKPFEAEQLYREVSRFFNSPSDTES
Method: Escherichia coli strains KMI001 harbouring the plasmid […]4 or […]3 were grown overnight at 25° C. in M9 media enriched with 0.1% casamino acids to OD600 1. The preculture was diluted 1:600 in 1 ml M9 medium containing 0.1% casamino acids and 1 μl stock solution of either the tested compound (10^-7 M-5×10^-5 M) or solvent control (DMSO, ethanol, methanol) were added. The cultures were further grown at 25° C. in microtiter plate, 200 μl per well. […] The cultures were centrifuged and 50 μl aliquots of the supernatant were transferred to microtiter plate containing 2 μl 150 mM 4-methyl umbelliferyl galactoside which was subsequently incubated for 1 h at 37° C. The reaction was stopped by adding 100 μl 0.2 M Na2CO3. […] The EC50 value, the compound concentration activating the receptor to 50%, was calculated from the obtained dose response curves. The values shown in Table 10 are means of three replicates and the entire test was repeated at least twice.

SMILES: COc1cc(Nc2nc(Cl)nc3nc[nH]c23)ccc1O
- Senescent Cells (%) HCA passage 25 [1]: 4%
- Senescent Cells (%) HCA passage 50 [1]: 6%

SMILES: COc1cccc(Nc2nc(N)nc3nc[nH]c23)c1 [2-amino-6-(3-methoxyanilino)purine]
- Senescent Cells (%) HCA passage 25 [1]: 4%
- Senescent Cells (%) HCA passage 50 [1]: 4%
- Senescent Cells (%) HCA passage 80 [1]: 22%

SMILES: Nc1nc(Nc2ccc(O)cc2)c2nc[nH]c2n1 [2-amino-(4-hydroanilino)purine]
- Senescent Cells (%) HCA passage 25 [1]: 3%
- Senescent Cells (%) HCA passage 50 [1]: 4%
- Senescent Cells (%) HCA passage 80 [1]: 21%

SMILES: Nc1nc(Nc2ccc(O)cc2)c2[nH]cnc2n1 [2-amino-(4-hydroxyanilino)purine]
- Senescent Cells (%) HCA passage 25 [1]: 4%
- Senescent Cells (%) HCA passage 50 [1]: 4%
- Senescent Cells (%) HCA passage 80 [1]: 18%

SMILES: COc1cccc(Nc2nc(Cl)nc3nc[nH]c23)c1 [2-chloro-6-(3-methoxyanilino)purine]
- Senescent Cells (%) HCA passage 25 [1]: 5%
- Senescent Cells (%) HCA passage 50 [1]: 5%
- Senescent Cells (%) HCA passage 80 [1]: 24%

SMILES: COc1ccc(Nc2nc(Cl)nc3nc[nH]c23)cc1 [2-chloro-6-(4-methoxyanilino)purine]
- Senescent Cells (%) HCA passage 25 [1]: 4%
- Senescent Cells (%) HCA passage 50 [1]: 3%
- Senescent Cells (%) HCA passage 80 [1]: 26%

SMILES: COc1cccc(Nc2nc(F)nc3nc[nH]c23)c1 [2-fluoro-6-(3-methoxyanilino)purine]
- Senescent Cells (%) HCA passage 25 [1]: 3%
- Senescent Cells (%) HCA passage 50 [1]: 5%
- Senescent Cells (%) HCA passage 80 [1]: 29%

SMILES: Oc1ccc(Nc2nc(F)nc3nc[nH]c23)cc1 [2-fluoro-6-(4-hydroxyanilino)purine]
- Senescent Cells (%) HCA passage 25 [1]: 3%
- Senescent Cells (%) HCA passage 50 [1]: 4%
- Senescent Cells (%) HCA passage 80 [1]: 18%

SMILES: CSc1nc(Nc2ccc(O)cc2)c2[nH]cnc2n1 [2-methylthio-6-(4-hydroxyanilino)purine]
- Senescent Cells (%) HCA passage 25 [1]: 4%
- Senescent Cells (%) HCA passage 50 [1]: 6%
- Senescent Cells (%) HCA passage 80 [1]: 34%

SMILES: Fc1ccc(Nc2nc(Cl)nc3[nH]cnc23)cc1 [Compound 7]
- Activity (%) [10^−5 mol · l^−1 K = 100%] [2]: 104%
- Activity (%) [10^−5 mol · l^−1 K = 100%] [3]: 112%

SMILES: COc1ccccc1Nc1nc(Cl)nc2nc[nH]c12 [Compound 11]
- concentration with highest activity ([2]; 48 h): 10^−5 mol · l^−1
- Activity (%) [10^−5 mol · l^−1 K = 100%] [2]: 110.3% and 121.7%
- Activity (%) [10^−5 mol · l^−1 K = 100%] [3]: 109%
- concentration with highest activity ([3]; fresh weight after four weeks): 10^−5 mol · l^−1

SMILES: COc1ccc(Nc2nc(Cl)nc3[nH]cnc23)cc1 [Compound 13]
- EC50 [4]: 33.1 µM

SMILES: Fc1ccc(Nc2nc(F)nc3[nH]cnc23)cc1 [Compound 46]
- Activity (%) [10^−5 mol · l^−1 K = 100%] [2]: 109%
- EC50 [4]: 22.5 µM
- Activity (%) [10^−5 mol · l^−1 K = 100%] [3]: 110.7%

SMILES: COc1ccc(Nc2nc(F)nc3[nH]cnc23)cc1 [Compound 52]
- EC50 [4]: 18.9 µM
- Activity (%) [10^−5 mol · l^−1 K = 100%] [3]: 105%

SMILES: Nc1nc(Nc2ccc(Cl)cc2)c2nc[nH]c2n1 [Compound 67]
- Activity (%) [10^−5 mol · l^−1 K = 100%] [2]: 141.7%
- EC50 [4]: 8.1 µM

SMILES: Nc1nc(Nc2ccc(F)cc2)c2nc[nH]c2n1 [Compound 70]
- Activity (%) [10^−5 mol · l^−1 K = 100%] [2]: 136%
- EC50 [4]: 19.5 µM

SMILES: COc1ccccc1Nc1nc(N)nc2[nH]cnc12 [Compound 74]
- Activity (%) [10^−5 mol · l^−1 K = 100%] [2]: 108%
- EC50 [4]: 29 µM

SMILES: COc1ccc(Nc2nc(N)nc3[nH]cnc23)cc1 [Compound 76]
- EC50 [4]: 26.3 µM

SMILES: Sc1nc(Nc2ccc(Cl)cc2)c2nc[nH]c2n1 [Compound 81]
- Activity (%) [10^−5 mol · l^−1 K = 100%] [2]: 122.9%
- EC50 [4]: 10.2 µM
- Activity (%) [10^−5 mol · l^−1 K = 100%] [3]: 115.7%
